Measurements: patent publication US9260425B2 (Genetech, Inc., priority 2011, dated 2016)
Where two headings read alike, the source gives them in different places.

What was measured:
BaF3 parental cells = assay: In vitro cell proliferation potency assay, BaF3 parental line with IL-3 (Cell Titer Glo); type: cell-based, murine; settings: Mus musculus, 2 ng/mL mIL-3, incubated overnight, read-out: Prolif. BaF3 IL3 (IC50)
Description: (§1) In Vitro Cell Proliferation Potency Assays
(§2) BaF3 parental line was obtained from the DSMZ repository. BaF3 lines transfected with PIM-1 or PIM-2 were generated. Mouse IL-3 was purchased from R&D Systems. G418 was purchased from Clontech. Media for BaF3 parental line contained RPMI, 10% FBS, 2 mM L-Glutamine, 2 ng/mL mIL-3. Media for BaF3 PIM1 & 2 lines contained RPMI, 10% FBS, 2 mM L-Glutamine, […]. Media for MM1.S (multiple myeloma cells) line contained RPMI, 10% FBS, 2 mM L-Glutamine.
(§3) BaF3, a murine interleukin-3 dependent pro-B cell line, parental cells, BaF3 PIM1 cells, BaF3 PIM-2 cells, and MM1.S (multiple myeloma) cells were seeded at 2 k/well, 5 k/well, 5 k/well, and 10 k/well respectively, in a 384-well plate, at 45 μL/well. Test compound was added at 5 μL/well. BaF3 cells (parental and transfected) were incubated overnight, while MM1.S cells were incubated for 72 hours at 37° C., 5% CO2. Cell Titer Glo Reagent (Promega) was added at 50 μL/well, the plates were incubated for 30 minutes, and their luminescence read on an HT Analyst. IC50/EC50 values for the test compound were calculated.

BaF3 PIM1 cells = assay: In vitro cell proliferation potency assay, BaF3 line transfected with PIM-1 (Cell Titer Glo); type: cell-based, murine; settings: incubated overnight, read-out: Prolif. BaF3 PIM-1 (IC50)
Description: as §1
as §2, with “BaF3 lines transfected with PIM-1 or PIM-2 were generated.” left out
as §3

Pim-1 = Pim-1 (Homo sapiens (Human), UniProt P11309); assay: Pim kinase binding activity assay (Example 901), PIM-1 enzyme, Caliper microfluidic peptide phosphorylation; type: biochemical; settings: 20 pM PIM-1, 10 μM ATP, 1 μM FAM-peptide, 90 minutes at room temperature
Chain of Pim-1 (P11309 whole entry): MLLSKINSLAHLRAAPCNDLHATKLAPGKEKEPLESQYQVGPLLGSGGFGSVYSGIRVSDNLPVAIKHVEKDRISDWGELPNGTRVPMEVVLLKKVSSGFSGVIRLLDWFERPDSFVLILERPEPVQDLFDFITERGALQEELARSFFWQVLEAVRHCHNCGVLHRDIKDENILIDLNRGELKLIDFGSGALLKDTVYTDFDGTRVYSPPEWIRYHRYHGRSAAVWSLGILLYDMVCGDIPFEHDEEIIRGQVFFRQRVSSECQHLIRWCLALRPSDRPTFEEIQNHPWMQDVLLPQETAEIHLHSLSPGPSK
Summary of the method: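 PIM-1 at 20 pM phosphorylated 1 μM FAM-labelled Pim peptide with 10 μM ATP in HEPES pH 7.2, MgCl2, Tween 20 and DTT for 90 min at room temperature. EDTA stopped the reaction, and product and substrate were resolved by microfluidic electrophoresis (ex 488/em 530 nm). Ki was derived from substrate conversion.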

[1] = system: MM1.S (multiple myeloma) cells; assay: In vitro cell proliferation potency assay, MM1.S cells (Cell Titer Glo); type: cell-based; settings: Homo sapiens, 72 hours, read-out: Prolif. MM1S ATP (EC50)
Description: as §1, §2, §3

Structure (SMILES)	IC50 (BaF3 PIM1 cells; Mus musculus) [nM]	Ki (Pim-1) [nM]	EC50 [1] [nM]	IC50 (BaF3 PIM1 cells) [nM]	IC50 (BaF3 parental cells) [nM]
c1ccc(-c2n[nH]c3cnc(-c4cccnc4)cc23)cc1 [Example 116, 3-phenyl-5-(pyridin-3-yl)-1H-pyrazolo[3,4-c]pyridine]					13700
Fc1ccccc1-c1n[nH]c2cnc(-c3cccnc3)cc12 [Example 117, 3-(2-fluorophenyl)-5-(pyridin-3-yl)-1H-pyrazolo[3,4-c]pyridine]	18800				12900
Cn1cc(-c2cc3c(-c4ccccc4F)n[nH]c3cn2)cn1 [Example 129, 3-(2-fluorophenyl)-5-(1-methyl-1H-pyrazol-4-yl)-1H-pyrazolo[3,4-c]pyridine]	5200	7.85			5600
NC1CCN(c2cccc(-c3n[nH]c4cnc(-c5cccnc5)cc34)n2)CC1 [Example 144, 1-(6-(5-(pyridin-3-yl)-1H-pyrazolo[3,4-c]pyridin-3-yl)pyridin-2-yl)piperidin-4-amine]	130	0.0839	2200		3300
NC1CCN(c2cncc(-c3cc4c(-c5ccccc5F)n[nH]c4cn3)n2)CC1 [Example 147, 1-(6-(3-(2-fluorophenyl)-1H-pyrazolo[3,4-c]pyridin-5-yl)pyrazin-2-yl)piperidin-4-amine]	368	0.121	60.4		3900
N[C@@H]1CCCN(c2cccc(-c3n[nH]c4cnc(-c5cccnc5)cc34)n2)C1 [Example 149, (R)-1-(6-(5-(pyridin-3-yl)-1H-pyrazolo[3,4-c]pyridin-3-yl)pyridin-2-yl)piperidin-3-amine]	261	0.027	166		1500
N[C@H]1CCCN(c2cncc(-c3cc4c(-c5ccccc5F)n[nH]c4cn3)n2)C1 [Example 152, (S)-1-(6-(3-(2-fluorophenyl)-1H-pyrazolo[3,4-c]pyridin-5-yl)pyrazin-2-yl)piperidin-3-amine]	47.1		631		2700
N[C@@H]1CCCN(c2cncc(-c3cc4c(-c5ccccc5F)n[nH]c4cn3)n2)C1 [Example 153, (R)-1-(6-(3-(2-fluorophenyl)-1H-pyrazolo[3,4-c]pyridin-5-yl)pyrazin-2-yl)piperidin-3-amine]	28		436		2500
N[C@H]1CCCN(c2cccc(-c3n[nH]c4cnc(-c5cccnc5)cc34)n2)C1 [Example 161, (S)-1-(6-(5-(pyridin-3-yl)-1H-pyrazolo[3,4-c]pyridin-3-yl)pyridin-2-yl)piperidin-3-amine]	731	0.0411	281		1400
Cn1cc(-c2cc3c(-c4cccc(N5CCC[C@H](N)C5)n4)n[nH]c3cn2)cn1 [Example 173, (S)-1-(6-(5-(1-methyl-1H-pyrazol-4-yl)-1H-pyrazolo[3,4-c]pyridin-3-yl)pyridin-2-yl)piperidin-3-amine]			376	251	5700
NC[C@H]1CCN(c2cccc(-c3n[nH]c4cnc(-c5cccnc5)cc34)n2)C1 [Example 270, (R)-(1-(6-(5-(pyridin-3-yl)-1H-pyrazolo[3,4-c]pyridin-3-yl)pyridin-2-yl)pyrrolidin-3-yl)methanamine]	478		707		13100
N[C@H]1CCCN(c2cccc(-c3n[nH]c4cnc(-c5cncs5)cc34)n2)C1 [Example 349, (S)-1-(6-(5-(thiazol-5-yl)-1H-pyrazolo[3,4-c]pyridin-3-yl)pyridin-2-yl)piperidin-3-amine]	681		393		3400
N[C@@H]1CCCN(c2cccc(-c3n[nH]c4cnc(-c5cncs5)cc34)n2)C1 [Example 350, (R)-1-(6-(5-(thiazol-5-yl)-1H-pyrazolo[3,4-c]pyridin-3-yl)pyridin-2-yl)piperidin-3-amine]	188		287		3600
COCCn1cc(-c2cc3c(-c4cccc(N5CCNCC5)n4)n[nH]c3cn2)cn1 [Example 382, 5-(1-(2-methoxyethyl)-1H-pyrazol-4-yl)-3-(6-(piperazin-1-yl)pyridin-2-yl)-1H-pyrazolo[3,4-c]pyridine]	274		3200		17000
Cc1ccc(-c2n[nH]c3cnc(-c4cnn(C)c4)cc23)nc1N1C[C@@H](N)C[C@@H](F)C1 [Example 509, (3S,5R)-5-fluoro-1-(3-methyl-6-(5-(1-methyl-1H-pyrazol-4-yl)-1H-pyrazolo[3,4-c]pyridin-3-yl)pyridin-2-yl)piperidin-3-amine]		0.056			
CCn1cc(-c2cc3c(-c4ccc(C)c(N5C[C@@H](N)C[C@@H](F)C5)n4)n[nH]c3cn2)cn1 [Example 510, (3S,5R)-1-(6-(5-(1-ethyl-1H-pyrazol-4-yl)-1H-pyrazolo[3,4-c]pyridin-3-yl)-3-methylpyridin-2-yl)-5-fluoropiperidin-3-amine]		0.03			
CCn1cc(-c2cc3c(-c4cccc(N5CCNCC(CO)C5)n4)n[nH]c3cn2)cn1 (stereo not drawn) [Example 511, (1-(6-(5-(1-ethyl-1H-pyrazol-4-yl)-1H-pyrazolo[3,4-c]pyridin-3-yl)pyridin-2-yl)-1,4-diazepan-6-yl)methanol]		0.016			
CCn1cc(-c2cc3c(-c4cccc(N5CCNCC(CO)C5)n4)n[nH]c3cn2)cn1 (stereo not drawn) [Example 512, (1-(6-(5-(1-ethyl-1H-pyrazol-4-yl)-1H-pyrazolo[3,4-c]pyridin-3-yl)pyridin-2-yl)-1,4-diazepan-6-yl)methanol]		0.04			

Now from value to compound, other results behind:

IC50 (BaF3 PIM1 cells; Mus musculus) [nM]	Ki (Pim-1) [nM]	EC50 [1] [nM]	IC50 (BaF3 PIM1 cells) [nM]	Structure (SMILES)	IC50 (BaF3 parental cells) [nM]
	0.055			CCn1cc(-c2cc3c(-c4cccc(NC5CCCCNC5)n4)n[nH]c3cn2)cn1 (stereo not drawn) [Example 513, N-(6-(5-(1-ethyl-1H-pyrazol-4-yl)-1H-pyrazolo[3,4-c]pyridin-3-yl)pyridin-2-yl)azepan-3-amine]	
	0.077			NC1CCCCN(c2cccc(-c3n[nH]c4cnc(-c5cnn(CCF)c5)cc34)n2)C1 (stereo not drawn) [Example 514, 1-(6-(5-(1-(2-fluoroethyl)-1H-pyrazol-4-yl)-1H-pyrazolo[3,4-c]pyridin-3-yl)pyridin-2-yl)azepan-3-amine]	
	0.015			CCn1cncc(-c2cc3c(-c4cccc(N5CCNCC5)n4)n[nH]c3cn2)c1=O [Example 515, 3-ethyl-5-(3-(6-(piperazin-1-yl)pyridin-2-yl)-1H-pyrazolo[3,4-c]pyridin-5-yl)pyrimidin-4(3H)-one]	
	0.024			CC1CN(c2cccc(-c3n[nH]c4cnc(-c5cnn(CCF)c5)cc34)n2)CCN1 (stereo not drawn) [Example 516, 5-(1-(2-fluoroethyl)-1H-pyrazol-4-yl)-3-(6-(3-methylpiperazin-1-yl)pyridin-2-yl)-1H-pyrazolo[3,4-c]pyridine]	
	1.17			Cn1cc(-c2cc3c(-c4cccc(N5C[C@H](N)C[C@@H](F)C5)n4)n[nH]c3cn2)cn1 [Example 517, (3R,5R)-5-fluoro-1-(6-(5-(1-methyl-1H-pyrazol-4-yl)-1H-pyrazolo[3,4-c]pyridin-3-yl)pyridin-2-yl)piperidin-3-amine]	
	0.082			CCn1cc(-c2cc3c(-c4cccc(N5CCCCC(N)C5)n4)n[nH]c3cn2)cn1 (stereo not drawn) [Example 518, 1-(6-(5-(1-ethyl-1H-pyrazol-4-yl)-1H-pyrazolo[3,4-c]pyridin-3-yl)pyridin-2-yl)azepan-3-amine]	
	0.025			N[C@H]1CCCCN(c2cccc(-c3n[nH]c4cnc(-c5cnn(CCF)c5)cc34)n2)C1 [Example 519, (S)-1-(6-(5-(1-(2-fluoroethyl)-1H-pyrazol-4-yl)-1H-pyrazolo[3,4-c]pyridin-3-yl)pyridin-2-yl)azepan-3-amine]	
	0.098			N[C@@H]1CCCCN(c2cccc(-c3n[nH]c4cnc(-c5cnn(CCF)c5)cc34)n2)C1 [Example 520, (R)-1-(6-(5-(1-(2-fluoroethyl)-1H-pyrazol-4-yl)-1H-pyrazolo[3,4-c]pyridin-3-yl)pyridin-2-yl)azepan-3-amine]	
	0.026			C[C@@H]1CN(c2cccc(-c3n[nH]c4cnc(-c5cnn(CCF)c5)cc34)n2)CCN1 [Example 521, (R)-5-(1-(2-fluoroethyl)-1H-pyrazol-4-yl)-3-(6-(3-methylpiperazin-1-yl)pyridin-2-yl)-1H-pyrazolo[3,4-c]pyridine]	
	0.019			Cc1cncc(-c2cc3c(-c4cccc(N5CCCNCC5)n4)n[nH]c3cn2)n1 [Example 522, 3-(6-(1,4-diazepan-1-yl)pyridin-2-yl)-5-(6-methylpyrazin-2-yl)-1H-pyrazolo[3,4-c]pyridine]	
